The results in this text go back to BindingDB's records for patent US20250084074 (Merck Patent, 2025).

One may read the IC50 as the concentration at which inhibition is half-maximal. A low value points to higher potency.

The assay deals with T1, Kinesin-like protein KIFC1 (Homo sapiens, UniProt Q9BW19).
T1 sequence (Q9BW19 whole entry): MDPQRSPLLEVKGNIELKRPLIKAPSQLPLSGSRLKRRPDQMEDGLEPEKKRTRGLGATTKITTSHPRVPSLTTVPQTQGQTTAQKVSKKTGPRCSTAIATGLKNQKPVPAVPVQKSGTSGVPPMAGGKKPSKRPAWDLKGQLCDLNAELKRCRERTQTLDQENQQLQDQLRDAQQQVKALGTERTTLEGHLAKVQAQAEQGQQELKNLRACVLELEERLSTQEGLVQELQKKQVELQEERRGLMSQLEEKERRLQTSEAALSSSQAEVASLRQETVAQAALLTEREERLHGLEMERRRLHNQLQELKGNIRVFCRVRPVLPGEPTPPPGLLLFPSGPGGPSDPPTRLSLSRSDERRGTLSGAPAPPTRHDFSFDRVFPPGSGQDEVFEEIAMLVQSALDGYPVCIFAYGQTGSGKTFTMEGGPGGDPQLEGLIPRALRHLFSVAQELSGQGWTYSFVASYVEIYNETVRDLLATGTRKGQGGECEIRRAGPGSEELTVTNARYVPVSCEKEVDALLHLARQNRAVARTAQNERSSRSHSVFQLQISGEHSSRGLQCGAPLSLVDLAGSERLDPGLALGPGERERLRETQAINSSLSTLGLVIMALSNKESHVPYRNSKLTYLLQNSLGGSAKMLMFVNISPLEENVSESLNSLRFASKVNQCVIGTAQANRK
Description: Inhibitory Activities Against HSET-HSET ADP-Glo Assay. The protocol: Reagents: (+4° C. Storage)Paclitaxel Prod.No.TXD.01 2 mM in DMSO (from Universal Biologicals Cambridge).Tubulin Protein (Pre-formed Microtubules): Bovine Brain Prod.No.MT001-XL Lot.025 10 mg/mL (from Universal Biologicals Cambridge).Reagents: (−80° C. Storage)MT001-XL—Tubulin Protein (Pre-formed Microtubules): Bovine Brain—reconstituted in buffer—15 mM PIPES pH7, 1 mM MgCl2, 20 μM paclitaxel (aliquots at 10 mg/mL) from Universal Biologicals Cambridge.HSET full length protein—Current batch is FL HSET Prep1 (SEQ-000096_002-01_01)Buffer is 20 mM Hepes pH 7.5, 200 mM NaCl, 2 mM TCEP, 5% glycerol (5 μL aliquots at 10.2 μM)Reagents: (−20° C. Storage)ADP-Glo Kinase Assay kit (Promega Prod.No.V9102) 10,000 assay pointsADP-Glo reagent (50 mL), Kinase Detection Reagent (100 mL), and Ultrapure ATP (10 mM) aliquotedBuffer Stocks (filtered and stored at rt for up to 1 month)HEPES acid, 4-(2-Hydroxyethyl)piperazine-1-ethanesulfonic acid MW:238, 238.3 mg/mL=1 M7149 mg/30 mL=1M (pH to 6.8 with 5 M NaOH)PIPES, 1,4-Piperazinediethanesulfonic acid MW: 302.4, 30.24 mg/mL=100 mM; 907.2 mg/30 mL=100 mM (pH to 7 with 5 M NaOH, white cloudy suspension until the pH changes)EGTA, Ethylene glycol-bis(2-aminoethylether)-N,N,N′,N′-tetraacetic acid MW: 380.35, 38.035 mg/mL=100 mM1901.75 mg/50 mL=100 mM (pH to ˜7 with 5 M NaOH)—takes a long time to get into solution and for pH to stabilizeTriton-X-100, MW: 625, 62.5 mg/mL=100 mM (6.25% w/v) (viscous, pipette Triton X-100 with a Gilson using a trimmed pipette tip)ECHO ProtocolCreate an ECHO intermediate plate by adding 24.5 μL DMSO to columns 1 & 2, and 40 μL DMSO to columns 23 & 24 of an ECHO 384PP plateAdd 100 nL of compound/DMSO per well in 384-well Proxi-Plate Plus (white) —Perkin Elmer Cat #6008289 using ECHO dose response protocol 100 nL normal to Assay buffer (Keep on ice): HEPES pH 6.8, MgCl2, EGTA, Triton X-100, DTT, HPLC H2O Microtubule Working Solution (3.2):1 ml PM buffer: PIPES pH 7.0, MgCl2, HPLC H2O, Paclitaxel, mix well, store at rtThen add 26.4 μL of 10 mg/ml microtubules to 724 μL of the above PM buffer to make 750 μL of microtubule working solution @350 μg/mL microtubules (store at rt)Stock HSET enzyme solution (3.1)—keep on iceAdd 1.33 μL 10.2 μM HSET Prepi (SEQ-000096_002-01_01) to 1358 μL assay buffer to make a 10 nM stock for a 5 nM final assay concentration (1/1020 dilution).HSET/Microtubule working solution (3.3)Mix solutions 3.1 and 3.2 in the ratio of 2.5:1 (1214.3 μL 3.1+485.7 μL 3.2) keep at rt for 15 min3.2 is diluted 3.5-fold, 3.1 is diluted 1.4-fold BLANK solution is 357 μL 2XAB+143 μL microtubule working solution 3.2. (Same proportions as HSET/Microtubule working solution (3.3))ATP Working solution is 1 μL 10 mM UltraPure ATP (Promega kit)+999 μL ddH20 gives 10 μM ATP for a 3 μM final assay concentration, stored on ice.Assay procedure in PROXIPLATE 384 PLUS WHITE (Perkin Elmer) plates (Remove 2.4 mL ADP Glo and 4.5 mL Kinase detection reagent from freezer to warm up to rt)Add 3.5 μL BLANK solution to assay plate (column 12)Add 3.5 μL HSET/Microtubule solution (3.3) (columns 1-11 & 13-24)Centrifuge at 1000 rpm for 1 min(pre-incubate enzyme and compound for 10 min)Add 1.5 μL of 10 μM ATP to start reaction gives a final [HSET] of 5 nM, [ATP] of 3 μM and [microtubule] of 70 μg/mL, centrifuge at 1000 rpm for 1 min and incubated at rt for 80 min.After the 80-minute incubation, stop reaction by adding 5 μL ADP-Glo reagent to all wells. Centrifuge for 1 min at 1000 rpm, leave for 40 min at rt.In the dark/away from direct light, add 10 μL Kinase Detection Reagent (KDR) to all wells, Seal plate with a Topseal (Perkin Elmer Cat #6050185) and centrifuge as above, leave for 40 min at rt covered in foil.
On the technique in general: In ADP-Glo the light output rises with the ADP produced.
Compound `Cc1nnn(-c2ccc3ccnc(NCCC(=O)Nc4nc(C)c(C(C)(C)C)s4)c3c2)n1` [US20250084074, Example 58] displayed an IC50 of 14 nM. For `CCCOC(=O)c1sc(C(=O)N2CC[C@@H](NC(=O)c3cccc(-c4noc(C)n4)c3)C2)nc1C` [US20250084074, Example 241], half-maximal inhibition (IC50) was put at 3080 nM. Then `CCc1nc(NC(=O)[C@@H](N)CNC(=O)c2cccc(-c3noc(C)n3)c2)sc1C(C)(C)C` [US20250084074, Example 161], with 2150 nM.

`Cc1nc(-c2cccc(C(=O)NCCC(=O)Nc3cnn(C(=O)OC(C)(C)C)c3)c2)no1` [US20250084074, Example 274]: the IC50 is 6400 nM. Then `CCCOC(=O)c1sc(NC(=O)[C@@H](N)CNC(=O)c2cccc(-c3noc(C)n3)c2)nc1C` [US20250084074, Example 160], with 54 nM; and `Cc1nc(NC(=O)CCNc2nccc3ccc(C#N)cc23)sc1C(C)(C)C` [US20250084074, Example 50], with 199 nM; and `Cc1nc(NC(=O)CCNc2nccc3c(F)cc(C#N)cc23)sc1C(C)(C)C` [US20250084074, Example 53], with 240 nM. `Cc1nc(-c2ccc3ccnc(NCCC(=O)Nc4nc(C)c(C(C)(C)C)s4)c3c2)no1` [US20250084074, Example 75] yielded an IC50 of 78 nM. `Cc1nc(-c2ccc3ccnc(N[C@H]4C[C@@H](C(=O)Nc5nc(C)c(Br)s5)C4)c3c2)no1` [US20250084074, Example 97] registered an IC50 of 1150 nM. For `Cc1nc(NC(=O)CCNc2nccc3ccc(C#N)cc23)sc1C1(C(F)(F)F)CC1` [US20250084074, Example 51], inhibition was half-maximal at 1600 nM (IC50). Then `CCCc1nc(-c2cnc(NC(=O)CCNc3nccc4ccc(-c5noc(C)n5)cc34)s2)no1` [US20250084074, Example 119], with 67 nM; and `Cc1nc(-c2cccc(C(=O)NCCC(=O)Nc3nc(C)c(C(F)(F)F)s3)c2)no1` [US20250084074, Example 139], with 2160 nM.
